From patent publication US9695155B2, “Herbicidal substituted pyrimidinyloxy benzene compounds” (E. I. DU PONT DE NEMOURS AND COMPANY, priority 2013, dated 2017)

Experiments:
bromegrass, downy = assay: Test D preemergence; type: in vivo, Bromus tectorum; conditions: for pest or weed control at 16 g/ha / pest or weed control at 31 g/ha / pest or weed control at 62 g/ha / pest or weed control at 125 g/ha: Bromus tectorum, pre-emergence; for pest or weed control at 16 g/ha: read-out: Plant response rating, Bromegrass, Downy; for pest or weed control at 31 g/ha / pest or weed control at 62 g/ha / pest or weed control at 125 g/ha: scale 0-100, read-out: Plant response rating, Bromegrass, Downy
Source text: (§1) Seeds of plant species selected from bluegrass (annual bluegrass, Poa annua), blackgrass (Alopecurus myosuroides), canarygrass (littleseed canarygrass, Phalaris minor), chickweed (common chickweed, Stellaria media), galium (catchweed bedstraw, Galium aparine), bromegrass, downy (downy bromegrass, Bromus tectorum), field poppy (Papaver rhoeas), field violet (Viola arvensis), green foxtail (Setaria viridis), deadnettle (henbit deadnettle, Lamium amplexicaule), Italian ryegrass (Lolium multiflorum), kochia (Kochia scoparia), lambsquarters (Chenopodium album), oilseed rape (Brassica napus), pigweed (Amaranthus retroflexus), chamomile (scentless chamomile, Matricaria inodora), Russian thistle (Salsola kali), speedwell (bird's-eye speedwell, Veronica persica), spring barley (Hordeum vulgare), spring wheat (Triticum aestivum), wild buckwheat (Polygonum convolvulus), wild mustard (Sinapis arvensis), wild oat (Avena fatua), wild radish (Raphanus raphanistrum), windgrass (Apera spica-venti), winter barley (Hordeum vulgare), and winter wheat (Triticum aestivum) were planted into a silt loam soil and treated preemergence with test chemicals formulated in a non-phytotoxic solvent mixture which included a surfactant.
(§2) At the same time, these species were planted in pots containing Redi-Earth® planting medium (Scotts Company, 14111 Scottslawn Road, Marysville, Ohio 43041) comprising spaghnum peat moss, vermiculite, wetting agent and starter nutrients and treated with postemergence applications of the test chemicals formulated in the same manner. Plants ranged in height from 2 to 18 cm (1- to 4-leaf stage). Treated plants and controls were maintained in a controlled growth environment for 7 to 21 days after which time all species were compared to controls and visually evaluated. Plant response ratings, summarized in Table D, are based on a scale of 0 to 100 where 0 is no effect and 100 is complete control. A dash (-) response means no test result.

bluegrass = assay: Test D postemergence; type: in vivo, Poa annua; conditions: for pest or weed control at 16 g/ha / pest or weed control at 31 g/ha / pest or weed control at 62 g/ha / pest or weed control at 125 g/ha: Poa annua, post-emergence, read-out: Plant response rating, Bluegrass
Source text: as §1, §2

chamomile = assay: Test D preemergence; type: in vivo, Matricaria inodora; conditions: for pest or weed control at 16 g/ha: read-out: Plant response rating, Chamomile
Source text: as §1, §2

winter barley = assay: Test D preemergence; type: in vivo, Hordeum vulgare; conditions: for plant injury at 16 g/ha / plant injury at 31 g/ha / plant injury at 62 g/ha / plant injury at 125 g/ha: Hordeum vulgare, pre-emergence; for plant injury at 16 g/ha: read-out: Plant response rating, Barley, Winter; for plant injury at 31 g/ha / plant injury at 62 g/ha / plant injury at 125 g/ha: scale 0-100, read-out: Plant response rating, Barley, Winter
Procedure, shortened: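 Seeds sown in silt loam soil got preemergence sprays; plants in peat/vermiculite potting medium were sprayed postemergence at 2–18 cm (1- to 4-leaf stage). Chemicals were formulated in a non-phytotoxic solvent mixture with surfactant. After 7 to 21 days in a controlled environment, injury was rated visually versus controls, 0 (no effect) to 100 (complete control).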

field poppy = assay: Test D preemergence; type: in vivo, Papaver rhoeas; conditions: for pest or weed control at 16 g/ha / pest or weed control at 31 g/ha / pest or weed control at 62 g/ha / pest or weed control at 125 g/ha: Papaver rhoeas, pre-emergence; for pest or weed control at 16 g/ha: read-out: Plant response rating, Field Poppy; for pest or weed control at 31 g/ha / pest or weed control at 62 g/ha / pest or weed control at 125 g/ha: scale 0-100, read-out: Plant response rating, Field Poppy
Source text: as §1, §2

signalgrass = assay: Test F preemergence; type: in vivo, Brachiaria platyphylla; conditions: 21 days, scale 0 to 100
Source text: (§3) Seeds of plant species selected from bermudagrass (Cynodon dactylon), surinam grass (Brachiaria decumbens), large (Lg) crabgrass (Digitaria sanguinalis), crabgrass, naked (naked crabgrass, Digitaria nuda), foxtail, green (green foxtail, Setaria viridis), johnsongrass (Sorghum halepense), kochia (Kochia scoparia), morningglory (pitted morningglory, Ipomoea lacunosa), nutsedge, purple (purple nutsedge, Cyperus rotundus), ragweed (common ragweed, Ambrosia elatior), mustard, black (black mustard, Brassica nigra), guineagrass (Panicum maximum), dallisgrass (Paspalum dilatatum), barnyardgrass (Echinochloa crus-galli), sandbur (southern sandbur, Cenchrus echinatus), sowthistle (common sowthistle, Sonchus oleraceous), Italian ryegrass (Lolium multiflorum), signalgrass (broadleaf signalgrass, Brachiaria platyphylla), dayflower (Virginia (VA) dayflower, Commelina virginica), bluegrass (annual bluegrass, Poa annua), quackgrass (Elytrigia repens), mallow (common mallow, Malva sylvestris), buckwheat, wild (wild buckwheat, Polygonum convolvulus), leafy spurge (Euphorbia esula), chickweed (common chickweed, Stellaria media), wild poinsettia (Euphorbia heterophylla), and pigweed (Amaranthus retroflexus) were planted into a blend of loam soil and sand and treated preemergence with test chemicals formulated in a non-phytotoxic solvent mixture which included a surfactant.
(§4) Treated plants and controls were maintained in a greenhouse for 21 days, after which time all species were compared to controls and visually evaluated. Plant response ratings, summarized in Table F, are based on a scale of 0 to 100 where 0 is no effect and 100 is complete control. A dash (-) response means no test result.

johnsongrass = assay: Test F preemergence; type: in vivo, Sorghum halepense; conditions: 21 days, scale 0 to 100
Source text: as §3, §4

[1] = 16 g ai/ha, scale 0 (no effect) to 100 (complete control)
[2] = Postemergence, 62 g ai/ha, scale 0 to 100 (0 no effect, 100 complete control)
[3] = Postemergence, 31 g ai/ha, scale 0 to 100 (0 no effect, 100 complete control)
[4] = Postemergence, 125 g ai/ha, scale 0 to 100 (0 no effect, 100 complete control)
[5] = Postemergence, 16 g ai/ha, scale 0 to 100 (0 no effect, 100 complete control)
[6] = Tripleurospermum inodorum, pre-emergence, 16 g ai/ha, scale 0 (no effect) to 100 (complete control)
[7] = Tripleurospermum inodorum, pre-emergence, 62 g ai/ha, scale 0-100, read-out: Plant response rating, Chamomile
[8] = Tripleurospermum inodorum, pre-emergence, 125 g ai/ha, scale 0-100, read-out: Plant response rating, Chamomile

Structure (SMILES): FCc1cccc(Oc2ncc(Cl)cn2)c1-n1cc(I)cn1 [Compound 245]
- Plant response rating, Bromegrass, Downy (bromegrass, downy; [1]): 0
- Plant response rating, Bromegrass, Downy (bromegrass, downy; 31 g ai/ha, scale 0-100): 0
- Plant response rating, Bromegrass, Downy (bromegrass, downy; 62 g ai/ha, scale 0-100): 35
- Plant response rating, Bromegrass, Downy (bromegrass, downy; 125 g ai/ha, scale 0-100): 40
- Plant response rating, Bluegrass (bluegrass; [2]): 15
- Plant response rating, Bluegrass (bluegrass; [3]): 20
- Plant response rating, Bluegrass (bluegrass; [4]): 30
- Plant response rating, Bluegrass (bluegrass; postemergence, 16 g ai/ha, scale 0 to 100, 0 no effect, 100 complete control): 10
- Plant response rating, Chamomile (chamomile; [1]): 25
- Plant response rating, Chamomile (chamomile; 31 g ai/ha, scale 0-100): 30
- Plant response rating, Chamomile (chamomile; 62 g ai/ha, scale 0-100): 55
- Plant response rating, Chamomile (chamomile; 125 g ai/ha, scale 0-100): 100
- Plant response rating, Barley, Winter (winter barley; [1]): 0
- Plant response rating, Barley, Winter (winter barley; 31 g ai/ha, scale 0-100): 35
- Plant response rating, Barley, Winter (winter barley; 62 g ai/ha, scale 0-100): 25
- Plant response rating, Barley, Winter (winter barley; 125 g ai/ha, scale 0-100): 40
- Plant response rating, Field Poppy (field poppy; [1]): 100
- Plant response rating, Field Poppy (field poppy; 31 g ai/ha, scale 0-100): 100
- Plant response rating, Field Poppy (field poppy; 62 g ai/ha, scale 0-100): 100
- Plant response rating, Field Poppy (field poppy; 125 g ai/ha, scale 0-100): 100

Structure (SMILES): N#Cc1cccc(Oc2ncc(F)cn2)c1-n1cc(C(F)(F)F)cn1 [Compound 79, 3-[(5-fluoro-2-pyrimidinyl)oxy]-2-[4-(trifluoromethyl)-1H-pyrazol-1-yl]benzonitrile]
- Plant response rating, Signalgrass (signalgrass; 16 g ai/ha): 98
- Plant response rating, Signalgrass (signalgrass; 31 g ai/ha): 100
- Plant response rating, Signalgrass (signalgrass; 62 g ai/ha): 100
- Plant response rating, Signalgrass (signalgrass; 125 g ai/ha): 100
- Plant response rating, Signalgrass (signalgrass; 250 g ai/ha): 100
- Plant response rating, Johnsongrass (johnsongrass; 16 g ai/ha): 65
- Plant response rating, Johnsongrass (johnsongrass; 31 g ai/ha): 100
- Plant response rating, Johnsongrass (johnsongrass; 62 g ai/ha): 100
- Plant response rating, Johnsongrass (johnsongrass; 125 g ai/ha): 100
- Plant response rating, Johnsongrass (johnsongrass; 250 g ai/ha): 100

Structure (SMILES): N#Cc1cccc(Oc2ncc(Cl)cn2)c1-n1cc(OC(F)F)cn1 [Compound 97]
- Plant response rating, Signalgrass (signalgrass; 16 g ai/ha): 25
- Plant response rating, Signalgrass (signalgrass; 31 g ai/ha): 90
- Plant response rating, Signalgrass (signalgrass; 62 g ai/ha): 85
- Plant response rating, Signalgrass (signalgrass; 125 g ai/ha): 100
- Plant response rating, Signalgrass (signalgrass; 250 g ai/ha): 100
- Plant response rating, Johnsongrass (johnsongrass; 16 g ai/ha): 0
- Plant response rating, Johnsongrass (johnsongrass; 31 g ai/ha): 65
- Plant response rating, Johnsongrass (johnsongrass; 62 g ai/ha): 95
- Plant response rating, Johnsongrass (johnsongrass; 125 g ai/ha): 100
- Plant response rating, Johnsongrass (johnsongrass; 250 g ai/ha): 100

Structure (SMILES): N#Cc1cccc(Oc2ncc(Cl)cn2)c1-n1cc(OCC(F)(F)F)cn1 [Compound 274, 3-[(5-chloro-2-pyrimidinyl)oxy]-2-[4-(2,2,2-trifluoroethoxy)-1H-pyrazol-1-yl]benzonitrile]
- pest or weed control at 16 g/ha (bromegrass, downy; [1]): 0%
- pest or weed control at 31 g/ha (bromegrass, downy; 31 g ai/ha): 5%
- pest or weed control at 62 g/ha (bromegrass, downy; 62 g ai/ha): 5%
- pest or weed control at 125 g/ha (bromegrass, downy; 125 g ai/ha): 35%
- pest or weed control at 16 g/ha (bluegrass; [5]): 20%
- pest or weed control at 31 g/ha (bluegrass; [3]): 25%
- pest or weed control at 62 g/ha (bluegrass; [2]): 30%
- pest or weed control at 125 g/ha (bluegrass; [4]): 30%
- pest or weed control at 16 g/ha (chamomile; [6]): 5%
- pest or weed control at 62 g/ha (chamomile; [7]): 35%
- pest or weed control at 125 g/ha (chamomile; [8]): 65%
- plant injury at 16 g/ha (winter barley; [1]): 0%
- plant injury at 31 g/ha (winter barley; 31 g ai/ha): 0%
- plant injury at 62 g/ha (winter barley; 62 g ai/ha): 10%
- plant injury at 125 g/ha (winter barley; 125 g ai/ha): 55%
- Plant response rating, Signalgrass (signalgrass; 16 g ai/ha): 75
- Plant response rating, Signalgrass (signalgrass; 31 g ai/ha): 70
- Plant response rating, Signalgrass (signalgrass; 62 g ai/ha): 100
- Plant response rating, Signalgrass (signalgrass; 125 g ai/ha): 100
- Plant response rating, Signalgrass (signalgrass; 250 g ai/ha): 100
- pest or weed control at 16 g/ha (field poppy; [1]): 75%
- pest or weed control at 31 g/ha (field poppy; 31 g ai/ha): 100%
- pest or weed control at 62 g/ha (field poppy; 62 g ai/ha): 100%
- pest or weed control at 125 g/ha (field poppy; 125 g ai/ha): 100%
- Plant response rating, Johnsongrass (johnsongrass; 16 g ai/ha): 65
- Plant response rating, Johnsongrass (johnsongrass; 31 g ai/ha): 70
- Plant response rating, Johnsongrass (johnsongrass; 62 g ai/ha): 100
- Plant response rating, Johnsongrass (johnsongrass; 125 g ai/ha): 100
- Plant response rating, Johnsongrass (johnsongrass; 250 g ai/ha): 100

Structure (SMILES): Fc1cccc(Oc2ncc(Cl)cn2)c1-n1cc(C(F)F)nn1 [Compound 141, 5-chloro-2-[2-[4-(difluoromethyl)-1H-1,2,3-triazol-1-yl]-3-fluorophenoxy]pyrimidine]
- pest or weed control at 16 g/ha (bromegrass, downy; [1]): 30%
- pest or weed control at 31 g/ha (bromegrass, downy; 31 g ai/ha): 45%
- pest or weed control at 62 g/ha (bromegrass, downy; 62 g ai/ha): 85%
- pest or weed control at 125 g/ha (bromegrass, downy; 125 g ai/ha): 95%
- pest or weed control at 16 g/ha (bluegrass; [5]): 5%
- pest or weed control at 31 g/ha (bluegrass; [3]): 20%
- pest or weed control at 62 g/ha (bluegrass; [2]): 35%
- pest or weed control at 125 g/ha (bluegrass; [4]): 40%
- pest or weed control at 16 g/ha (chamomile; [6]): 90%
- pest or weed control at 31 g/ha (chamomile; Tripleurospermum inodorum, pre-emergence, 31 g ai/ha, scale 0-100, read-out: Plant response rating, Chamomile): 100%
- pest or weed control at 62 g/ha (chamomile; [7]): 70%
- pest or weed control at 125 g/ha (chamomile; [8]): 100%
- plant injury at 16 g/ha (winter barley; [1]): 15%
- plant injury at 31 g/ha (winter barley; 31 g ai/ha): 35%
- plant injury at 62 g/ha (winter barley; 62 g ai/ha): 65%
- plant injury at 125 g/ha (winter barley; 125 g ai/ha): 90%
- pest or weed control at 16 g/ha (field poppy; [1]): 98%
- pest or weed control at 31 g/ha (field poppy; 31 g ai/ha): 100%
- pest or weed control at 62 g/ha (field poppy; 62 g ai/ha): 100%
- pest or weed control at 125 g/ha (field poppy; 125 g ai/ha): 100%
